In patent US20250122225A1, “MASP-2 INHIBITORS AND METHODS OF USE” (Omeros Corporation, priority 2023, published 2025):
Counter-ions that a name gives are not always drawn.

Tests used:
MASP-2 (CCP1-CCP2-SP) = target: T1, MASP-2 (CCP1-CCP2-SP) (Homo sapiens, UniProt O00187); assay: Enzymatic assay for MASP-2 inhibitory activity (fluorogenic substrate); type: biochemical
T1 construct: 15 μL of Enzyme MASP-2 (CCP1-CCP2-SP) in Assay Buffer
Outline: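 MASP-2 (CCP1-CCP2-SP) cleaved a fluorogenic substrate based on the C2 cleavage site in 20 mM HEPES pH 7.4, 140 mM NaCl, 0.1% Tween 20 at room temperature. After 20 min the reaction was stopped with 0.1 M acetic acid and fluorescence read. % activity was normalized to DMSO-only and no-enzyme controls; IC50 taken as Ki.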

human α-thrombin = target: T2, human α-thrombin (Homo sapiens, UniProt P00734); assay: Enzymatic assay for thrombin (fluorogenic peptide substrate Boc-VPR-AMC); type: biochemical
T2 construct: enzyme (human α-thrombin (BioPharm® Lab.)) in assay buffer; purchased BioPharm® Lab
Outline: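 Human α-thrombin was run with the fluorogenic substrate Boc-VPR-AMC in 20 mM Hepes pH 7.4, 140 mM NaCl, 0.1% Tween 20 at room temperature for 20 min, then stopped with 0.1 M acetic acid. % activity was normalized to DMSO and no-enzyme controls. Under linear conditions IC50 equalled Ki, except for tight-binding inhibitors.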

T1 sequence (O00187 445-686 limits assumed): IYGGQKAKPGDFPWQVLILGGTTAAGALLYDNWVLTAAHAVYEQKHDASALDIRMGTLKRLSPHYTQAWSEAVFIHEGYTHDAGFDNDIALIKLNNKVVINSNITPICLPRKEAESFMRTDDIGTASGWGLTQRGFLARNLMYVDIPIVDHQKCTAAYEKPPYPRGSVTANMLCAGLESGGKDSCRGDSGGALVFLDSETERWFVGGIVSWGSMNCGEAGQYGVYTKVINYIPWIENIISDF
T1 sequence (O00187 287-444 partner limits assumed): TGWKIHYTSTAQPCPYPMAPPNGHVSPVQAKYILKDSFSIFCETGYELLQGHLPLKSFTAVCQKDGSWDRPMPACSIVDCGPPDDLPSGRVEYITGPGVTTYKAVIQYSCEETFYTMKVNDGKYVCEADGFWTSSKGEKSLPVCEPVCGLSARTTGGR

| Compound | Ki (MASP-2 (CCP1-CCP2-SP)) [nM] | Ki (human α-thrombin) [nM] |
| --- | --- | --- |
| O=C(NCc1cc2cnccc2[nH]1)[C@@H]1CCc2c(Cl)nc(NCc3cccc(F)c3)c(=O)n21 [Compound 25, (S)-N-((1H-pyrrolo[3,2-c]pyridin-2-yl)methyl)-1-chloro-3-((3-fluorobenzyl)amino)-4-oxo-4,6,7,8-tetrahydropyrrolo[1,2-a]pyrazine-6-carboxamide] | < 500 | 10000 to 25000 |
| CC(C)[C@@H](Nc1ncc2n(c1=O)[C@H](C(=O)N[C@@H](C)c1cc3c(s1)CNC3)CC2)c1ccccc1 [Compound 275, (S)-N-((S)-1-(5,6-dihydro-4H-thieno[2,3-c]pyrrol-2-yl)ethyl)-3-(((R)-2-methyl-1-phenylpropyl)amino)-4-oxo-4,6,7,8-tetrahydropyrrolo[1,2-a]pyrazine-6-carboxamide trifluoroacetate] | < 500 | > 25000 |
| N=C(N)c1ccc(CNC(=O)[C@@H]2CCc3c(Cl)nc(NCCc4ccccc4)c(=O)n32)cc1 [Compound 250] | 500 to 2500 | 2500 to 10000 |
| Cc1ccc(C)c([C@@H](C)Nc2ncc3n(c2=O)[C@H](C(=O)NCc2cc4c(s2)CNC4)CC3)c1 [Compound 253, (S)—N-((5,6-dihydro-4H-thieno[2,3-c]pyrrol-2-yl)methyl)-3-(((R)-1-(2,5-dimethylphenyl)ethyl)amino)-4-oxo-4,6,7,8-tetrahydropyrrolo[1,2-a]pyrazine-6-carboxamide] | < 500 | < 500 |
| Cc1cc2[nH]c(CNC(=O)[C@@H]3CCc4cnc(NCc5cccc(C)c5F)c(=O)n43)cc2cn1 [Compound 61, (S)-3-((2-fluoro-3-methylbenzyl)amino)-N-((6-methyl-1H-pyrrolo[3,2-c]pyridin-2-yl)methyl)-4-oxo-4,6,7,8-tetrahydropyrrolo[1,2-a]pyrazine-6-carboxamide] | < 500 | 2500 to 10000 |
| Cc1cc(F)cc(CNc2nc(-c3cnn(C(F)F)c3)c3n(c2=O)[C@H](C(=O)NCc2ccc(N)nc2C)CC3)c1 [Compound 214, (S)—N-((6-amino-2-methylpyridin-3-yl)methyl)-1-(1-(difluoromethyl)-1H-pyrazol-4-yl)-3-((3-fluoro-5-methylbenzyl)amino)-4-oxo-4,6,7,8-tetrahydropyrrolo[1,2-a]pyrazine-6-carboxamide trifluoroacetate] | < 500 | > 25000 |
| Cc1cc(C)cc(CNc2nc(Cl)c3n(c2=O)[C@H](C(=O)NCc2cc4c(s2)CNC4)CC3)c1 [Compound 31, (S)-1-chloro-N-((5,6-dihydro-4H-thieno[2,3-c]pyrrol-2-yl)methyl)-3-((3,5-dimethylbenzyl)amino)-4-oxo-4,6,7,8-tetrahydropyrrolo[1,2-a]pyrazine-6-carboxamide] | < 500 | 2500 to 10000 |
| Cc1cc(C)cc(CNc2nc(Cl)c3n(c2=O)[C@H](C(=O)NCc2cc4cnccc4[nH]2)CC3)c1 [Compound 1, (S)—N-((1H-pyrrolo[3,2-c]pyridin-2-yl)methyl)-1-chloro-3-((3,5-dimethylbenzyl)amino)-4-oxo-4,6,7,8-tetrahydropyrrolo[1,2-a]pyrazine-6-carboxamide] | < 500 | 10000 to 25000 |
| CC(C)(C)[C@@H](Nc1ncc2n(c1=O)[C@H](C(=O)NCc1cc3c(s1)CNC3)CC2)c1ccccc1 [Compound 264, (S)-N-((5,6-dihydro-4H-thieno[2,3-c]pyrrol-2-yl)methyl)-3-(((R)-2,2-dimethyl-1-phenylpropyl)amino)-4-oxo-4,6,7,8-tetrahydropyrrolo[1,2-a]pyrazine-6-carboxamide trifluoroacetate] | < 500 | < 500 |
| Cc1nc(N)ccc1CNC(=O)[C@@H]1CCc2cnc(NCc3ccccc3)c(=O)n21 [Compound 104, (S)-N-((6-amino-2-methylpyridin-3-yl)methyl)-3-(benzylamino)-4-oxo-4,6,7,8-tetrahydropyrrolo[1,2-a]pyrazine-6-carboxamide] | < 500 | < 500 |
| Cc1nc(N)ccc1CNC(=O)[C@@H]1CCc2cnc(NCc3cccc(CO)c3)c(=O)n21 [Compound 47, (S)-N-((6-amino-2-methylpyridin-3-yl)methyl)-3-((3-(hydroxymethyl)benzyl)amino)-4-oxo-4,6,7,8-tetrahydropyrrolo[1,2-a]pyrazine-6-carboxamide] | < 500 | < 500 |
| Cc1cc(F)cc(CNc2ncc3n(c2=O)[C@H](C(=O)NCc2ccc([C@@H](C)N)cc2)CC3)c1 [Compound 173, (S)—N-(4-((R)-1-aminoethyl)benzyl)-3-((3-fluoro-5-methylbenzyl)amino)-4-oxo-4,6,7,8-tetrahydropyrrolo[1,2-a]pyrazine-6-carboxamide trifluoroacetate] | 2500 to 10000 | > 25000 |
| Cc1ccccc1[C@H](C)Nc1ncc2n(c1=O)[C@H](C(=O)NCc1cc3c(s1)CNC3)CC2 [Compound 94, (S)-N-((5,6-dihydro-4H-thieno[2,3-c]pyrrol-2-yl)methyl)-4-oxo-3-(((S)-1-(o-tolyl)ethyl)amino)-4,6,7,8-tetrahydropyrrolo[1,2-a]pyrazine-6-carboxamide] | < 500 | 500 to 2500 |
| Cc1cccc(CNc2ncc3n(c2=O)[C@H](C(=O)N[C@H](C)c2ccc(N)nc2)CC3)c1 [Compound 187, (S)-N-((R)-1-(6-aminopyridin-3-yl)ethyl)-3-((3-methylbenzyl)amino)-4-oxo-4,6,7,8-tetrahydropyrrolo[1,2-a]pyrazine-6-carboxamide] | < 500 | 2500 to 10000 |
| COCCCCNc1nc(Cl)c2n(c1=O)[C@H](C(=O)NCc1ccc(N)nc1C)CC2 [Compound 2, (S)-N-((6-amino-2-methylpyridin-3-yl)methyl)-1-chloro-3-((4-methoxybutyl)amino)-4-oxo-4,6,7,8-tetrahydropyrrolo[1,2-a]pyrazine-6-carboxamide] | < 500 | 2500 to 10000 |
| O=C(NCc1cc2cnccc2[nH]1)[C@@H]1C[C@H](Cc2ccccc2)c2cnc(NC3CCC3)c(=O)n21 [Compound 142, (6S,8S)-N-((1H-pyrrolo[3,2-c]pyridin-2-yl)methyl)-8-benzyl-3-(cyclobutylamino)-4-oxo-4,6,7,8-tetrahydropyrrolo[1,2-a]pyrazine-6-carboxamide] | < 500 | 2500 to 10000 |
| Cc1ccc(F)cc1CNc1ncc2n(c1=O)[C@H](C(=O)NCc1ccc(N)nc1C)CC2 [Compound 65, (S)-N-((6-amino-2-methylpyridin-3-yl)methyl)-3-((5-fluoro-2-methylbenzyl)amino)-4-oxo-4,6,7,8-tetrahydropyrrolo[1,2-a]pyrazine-6-carboxamide] | < 500 | < 500 |
| COCCCCNc1nc(Cl)c2n(c1=O)[C@H](C(=O)NCc1cc3cnccc3[nH]1)CC2 [Compound 22, (S)-N-((1H-pyrrolo[3,2-c]pyridin-2-yl)methyl)-1-chloro-3-((4-methoxybutyl)amino)-4-oxo-4,6,7,8-tetrahydropyrrolo[1,2-a]pyrazine-6-carboxamide] | < 500 | 10000 to 25000 |
| C[C@H]1C[C@@H](C(=O)NCc2cc3cnccc3[nH]2)n2c1c(Cl)nc(NCc1ccccc1)c2=O [Compound 130, (6S,8S)—N-((1H-pyrrolo[3,2-c]pyridin-2-yl)methyl)-3-(benzylamino)-1-chloro-8-methyl-4-oxo-4,6,7,8-tetrahydropyrrolo[1,2-a]pyrazine-6-carboxamide] | < 500 | > 25000 |
| O=C(NCc1cc2c(s1)CNC2)[C@@H]1CCc2cnc(N[C@@H]3CCc4ccc(-c5ccccc5)cc43)c(=O)n21 [Compound 260, (S)-N-((5,6-dihydro-4H-thieno[2,3-c]pyrrol-2-yl)methyl)-4-oxo-3-(((R)-6-phenyl-2,3-dihydro-1H-inden-1-yl)amino)-4,6,7,8-tetrahydropyrrolo[1,2-a]pyrazine-6-carboxamide trifluoroacetate] | < 500 | 2500 to 10000 |
| Cc1cc(F)cc(CNc2ncc3n(c2=O)[C@H](C(=O)NCc2ccc(N)nc2)CC3)c1 [Compound 72, (S)-N-((6-aminopyridin-3-yl)methyl)-3-((3-fluoro-5-methylbenzyl)amino)-4-oxo-4,6,7,8-tetrahydropyrrolo[1,2-a]pyrazine-6-carboxamide] | < 500 | < 500 |
| Cc1cc(F)cc(CNc2ncc3n(c2=O)[C@H](C(=O)NCc2c(C)cc(CN)cc2C)CC3)c1 [Compound 206, trifluoroacetate] | 500 to 2500 | 10000 to 25000 |
| Cc1cc(F)cc(CNc2nc(-c3cnn(C)c3)c3n(c2=O)[C@H](C(=O)NCc2ccc(N)nc2C)CC3)c1 [Compound 174, (S)—N-((6-amino-2-methylpyridin-3-yl)methyl)-3-((3-fluoro-5-methylbenzyl)amino)-1-(1-methyl-1H-pyrazol-4-yl)-4-oxo-4,6,7,8-tetrahydropyrrolo[1,2-a]pyrazine-6-carboxamide trifluoroacetate] | < 500 | > 25000 |
| Cc1cccc(CNc2nc(Cl)c3n(c2=O)[C@H](C(=O)NCc2cc4c(s2)CNC4)CC3)c1F [Compound 32, (S)-1-chloro-N-((5,6-dihydro-4H-thieno[2,3-c]pyrrol-2-yl)methyl)-3-((2-fluoro-3-methylbenzyl)amino)-4-oxo-4,6,7,8-tetrahydropyrrolo[1,2-a]pyrazine-6-carboxamide] | < 500 | 2500 to 10000 |
| O=C(NCc1cc2cnccc2[nH]1)[C@@H]1CCc2c(Cl)nc(NCCc3cccnc3)c(=O)n21 [Compound 241] | < 500 | < 500 |
